Experimental data reported in patent US20070292392A1, “USE OF THYMOSIN ALPHA 1 FOR PREPARING A MEDICAMENT FOR THE TREATMENT OF STAGE IV MALIGNANT MELANOMA” (SIGMA-TAU INDUSTRIE FARMACEUTICHE RIUNITE S.P.A., priority 2006, published 2007).
Ends that are not written are not given here.

Tests used:
[1] = test system: metastatic melanoma; details: cited from earlier work
[2] = test system: stage IV melanoma characterized by distant unresectable metastases; experiment: Phase II clinical trial with DTIC plus Tα1 with or without IFNα vs DTIC plus IFNα; tumor response by RECIST; assay type: in vivo, human; details: preliminary analysis on 142 patients; at the higher doses of Tα1
From the text: Phase II Clinical Trial with Dacarbazine (DTIC) Plus Thymosin alpha 1 (Tα1) with or without Interferon alpha (IFNα) vs DTIC Plus IFNα in Stage IV Melanoma Characterized by Distant Unresectable Metastases
Trial Design phase II, randomized, stratified, open-study testing different doses of Tα1 in association with DTIC and IFNα, as first line therapy for stage IV melanoma patients characterized by distant unresectable metastases (AJCC; Journal of Clinical Oncology 2001, 19: 3635-3648) without brain metastases. The primary study end-point was tumor response, and the following combination composition were used:
The protocol was than amended: 30 patients were added to each of the 2 triple therapies in order to balance the sample size of all the four groups and the following new group (using a higher dose of Tα1) was added:
The five groups were analyzed independently one another within the so-called “pick the winner” strategy.
Methods: Recycling every 28 days, patients were administered DTIC (800 mg/m^2) i.v. at day 1, Tα1 (1.6 or 3.2 mg) s.c. at days 8-11 and 15-18, and IFNα (3 MIU) s.c. at day 11 and 18. Clinical response was evaluated every two cycles according to RECIST criteria (New Guidelines to Evaluate the Response to Treatment in Solid Tumors; Journal of the National Cancer Institute, 2000. 92: 205-216) utilizing a central reader. […]

[3] = test system: human non-small cell lung cancer (NSCLC) cells; details: subcutaneous 1 or 10 mg per day; nude mice previously inoculated with human NSCLC cells; cited from earlier work
[4] = test system: lymphosarcoma cells; details: BALB/c mice; cited from earlier work

## CN(C)/N=N/c1[nH]cnc1C(N)=O [DTIC, Dacarbazine]
[1]; DTIC responses
  duration of responses (short-lived): three to six
[1]; DTIC
  effect of responses on patients' overall survival: no evidence that these responses have any effect on the patients' overall survival
[1]; Journal of Clinical Oncology and ASCO proceedings 2004
  actual overall responses to DTIC: 5.5-6.8%

## thymosin alpha 1 (SDAAVDTSSEITTKDLKEKKEVVEEAEN; ends and bridges not checked; UniProt P06454 2-29, looked up) [a compound well known in the medical field]
[2]
  dose-response effect on tumor response: clear dose-response effect
[3]
  tumor volume: significantly decreased
[4]
  local sarcoma growth as well as liver and lung metastases of lymphosarcoma cells: significantly reduced
